Results on 14 compounds are retold here after patent US20240116985A1, “STAPLED PEPTIDES AND METHODS THEREOF” (priority 2020, published 2024).

The test has as its target T1, full-length beta-Catenin (Uniprot ID P35222) (Homo sapiens, UniProt P35222).
T1 construct: 10 nM full-length beta-Catenin (Uniprot ID P35222)
T1 sequence (P35222 1-781): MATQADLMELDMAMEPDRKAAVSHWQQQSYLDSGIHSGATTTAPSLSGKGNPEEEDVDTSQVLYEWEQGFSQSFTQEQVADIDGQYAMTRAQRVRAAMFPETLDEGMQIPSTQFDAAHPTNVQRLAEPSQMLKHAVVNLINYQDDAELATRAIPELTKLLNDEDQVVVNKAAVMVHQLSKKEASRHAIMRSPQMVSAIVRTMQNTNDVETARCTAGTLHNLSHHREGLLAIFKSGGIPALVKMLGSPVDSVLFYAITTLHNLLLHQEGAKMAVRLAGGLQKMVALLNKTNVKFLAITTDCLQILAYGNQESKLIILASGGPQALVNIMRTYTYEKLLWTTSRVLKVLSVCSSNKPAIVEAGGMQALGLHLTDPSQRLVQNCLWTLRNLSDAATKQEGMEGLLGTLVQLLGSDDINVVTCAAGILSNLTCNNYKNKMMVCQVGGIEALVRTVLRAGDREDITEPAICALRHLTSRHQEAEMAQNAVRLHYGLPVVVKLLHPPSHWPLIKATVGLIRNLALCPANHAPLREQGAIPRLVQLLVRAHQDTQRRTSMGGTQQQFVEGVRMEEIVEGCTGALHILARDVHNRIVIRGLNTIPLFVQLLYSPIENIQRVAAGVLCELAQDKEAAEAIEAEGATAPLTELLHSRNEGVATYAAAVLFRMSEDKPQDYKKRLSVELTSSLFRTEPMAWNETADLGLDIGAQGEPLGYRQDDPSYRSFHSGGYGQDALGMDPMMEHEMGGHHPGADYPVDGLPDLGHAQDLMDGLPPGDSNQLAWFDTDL
As to the kind of experiment: Fluorescence polarization IC50 (beta-catenin / 5FAM-TCF4 10-53 competition). The class given is binding. The conditions noted are these: fluorescence polarization; read-out: beta-Catenin FP IC50. (Fluorescence polarisation rises when a labelled molecule tumbles more slowly, as on binding a larger partner.)

By IC50 is commonly meant the midpoint of a concentration-inhibition curve. In the case of `CC(=O)N1CCC[C@]12CC=CCCCC1(CCCC=CCCCOC(=O)N3CC[C@@](C(=O)N[C@@H](Cc4ccsc4)C(=O)N[C@@H](Cc4csc5ccccc45)C(=O)N[C@@H](C)C(N)=O)(C3)NC(=O)[C@H](CC(N)=O)NC(=O)[C@H](Cc3ccccc3)NC(=O)[C@H](C)NC(=O)C(C)(C)NC(=O)[C@H]([C@@H](C)O)NC(=O)[C@H](CC(N)=O)NC1=O)NC(=O)[C@H](CC(C)(C)C)NC(=O)[C@H](CC(=O)O)NC2=O` (stereo partly drawn) [I-2411, Ac-PL3-Asp-Npg-B5-Asn-Thr-Aib-Ala-Phe-Asn-PyrS2-3Thi-BztA-Ala-NH2], the half-maximal inhibitory concentration (IC50) came to 140 nM.
Turning to `CC(=O)N1CCC[C@]12CC=CCCCC1(CCCC=CCCCOC(=O)N3CC[C@@](C(=O)N[C@@H](Cc4ccsc4)C(=O)N[C@@H](Cc4csc5ccccc45)C(=O)N[C@@H](Cc4ccccc4)C(N)=O)(C3)NC(=O)[C@H](CC(N)=O)NC(=O)[C@H](Cc3ccccc3)NC(=O)[C@H](C)NC(=O)C(C)(C)NC(=O)[C@H]([C@@H](C)O)NC(=O)[C@H](CC(N)=O)NC1=O)NC(=O)[C@H](CC(C)(C)C)NC(=O)[C@H](CC(=O)O)NC2=O` (stereo partly drawn) [I-2412, Ac-PL3-Asp-Npg-B5-Asn-Thr-Aib-Ala-Phe-Asn-PyrS2-3Thi-BztA-Phe-NH2], the IC50 came to 267 nM.
As to `CC(=O)N1CCC[C@]12CC=CCCCC1(CCCC=CCCCOC(=O)N3CC[C@@](C(=O)N[C@@H](Cc4ccccc4)C(=O)N[C@@H](Cc4csc5ccccc45)C(=O)N[C@@H](CCCCN)C(N)=O)(C3)NC(=O)[C@H](CC(C)C)NC(=O)[C@H](Cc3ccccc3)NC(=O)[C@H](C)NC(=O)[C@H](CC(N)=O)NC(=O)[C@H](CCC(N)=O)NC(=O)[C@H](CC(=O)O)NC1=O)NC(=O)[C@H](CC1CCCCC1)NC(=O)[C@H](CC(N)=O)NC2=O` (stereo partly drawn) [I-2420, Ac-PL3-Asn-Cha-B5-Asp-Gln-Asn-Ala-Phe-Leu-PyrS2-Phe-BztA-Lys-NH2], the IC50 was 2120 nM.
The value for `CC(=O)N1CCC[C@]12CC=CCCCC1(CCCC=CCCCOC(=O)N3CC[C@@](C(=O)N[C@@H](Cc4ccccc4)C(=O)N[C@@H](Cc4csc5ccccc45)C(=O)N[C@@H](CCCCN)C(N)=O)(C3)NC(=O)[C@H](CC(C)C)NC(=O)[C@H](Cc3ccccc3)NC(=O)[C@H](C)NC(=O)[C@H](CO)NC(=O)[C@H](CCC(N)=O)NC(=O)[C@H](CC(=O)O)NC1=O)NC(=O)[C@H](CC1CCCCC1)NC(=O)[C@H](CC(N)=O)NC2=O` (stereo partly drawn) [I-2422, Ac-PL3-Asn-Cha-B5-Asp-Gln-Ser-Ala-Phe-Leu-PyrS2-Phe-BztA-Lys-NH2] was 3360 nM; that for `CC(=O)N1CCC[C@]12CC=CCCCC1(CCCC=CCCCOC(=O)N3CC[C@@](C(=O)N[C@@H](Cc4ccccc4)C(=O)N[C@@H](Cc4csc5ccccc45)C(=O)N[C@@H](CCCCN)C(N)=O)(C3)NC(=O)[C@H](CC(C)C)NC(=O)[C@H](Cc3ccccc3)NC(=O)[C@H](C)NC(=O)[C@H](CCCN3CCOCC3)NC(=O)[C@H](CCC(N)=O)NC(=O)[C@H](CC(=O)O)NC1=O)NC(=O)[C@H](CC1CCCCC1)NC(=O)[C@H](CC(N)=O)NC2=O` (stereo partly drawn) [I-2427, Ac-PL3-Asn-Cha-B5-Asp-Gln-MorphNva-Ala-Phe-Leu-PyrS2-Phe-BztA-Lys-NH2] was 757 nM.
As to `CC(=O)N1CCC[C@]12CC=CCCCC1(CCCC=CCCCOC(=O)N3CC[C@@](C(=O)N[C@@H](Cc4ccccc4)C(=O)N[C@@H](Cc4csc5ccccc45)C(=O)N[C@@H](CCCN4CCOCC4)C(N)=O)(C3)NC(=O)[C@H](CC(C)C)NC(=O)[C@H](Cc3ccccc3)NC(=O)[C@H](C)NC(=O)[C@H](CCCCNC(C)C)NC(=O)[C@H](CCC(N)=O)NC(=O)[C@H](CC(=O)O)NC1=O)NC(=O)[C@H](CC1CCCCC1)NC(=O)[C@H](CC(N)=O)NC2=O` (stereo partly drawn) [I-2428, Ac-PL3-Asn-Cha-B5-Asp-Gln-iPrLys-Ala-Phe-Leu-PyrS2-Phe-BztA-MorphNva-NH2], the IC50 was 401 nM.
For `CCCc1cn(CCCC[C@H](NC(=O)[C@H](CO)NC(=O)[C@H](Cc2csc3ccccc23)NC(=O)[C@H](Cc2ccccc2C(F)(F)F)NC(=O)[C@]23CCN(C2)C(=O)OCCCC=CCCCC2(CCCC=CC[C@]4(CCCN4C(C)=O)C(=O)N[C@@H](CC(=O)O)C(=O)N[C@@H](CC(C)(C)C)C(=O)N2)C(=O)N[C@@H](CC(=O)O)C(=O)N[C@@H](Cc2cccc(C(=O)O)c2)C(=O)N[C@@H](C)C(=O)N[C@@H](C)C(=O)N[C@@H](Cc2ccccc2)C(=O)N[C@@H](CC(C)C)C(=O)N3)C(N)=O)nn1` (stereo partly drawn) [I-2432, Ac-PL3-Asp-Npg-B5-Asp-3COOHF-Ala-Ala-Phe-Leu-PyrS2-2F3MeF-BztA-Ser-[3C]TriAzLys-NH2] the value was 60 nM; for `CC(=O)N1CCC[C@]12CC=CCCCC1(CCCC=CCCCOC(=O)N3CC[C@@](C(=O)N[C@@H](Cc4ccccc4)C(=O)N[C@@H](Cc4csc5ccccc45)C(=O)N[C@@H](CCC(N)=O)C(N)=O)(C3)NC(=O)[C@H]([C@@H](C)O)NC(=O)[C@H](Cc3ccccc3)NC(=O)[C@H](C)NC(=O)[C@H](C)NC(=O)[C@H](Cc3c[nH]cn3)NC(=O)[C@H](CC(=O)O)NC1=O)NC(=O)[C@H](CC(C)(C)C)NC(=O)[C@H](CCO)NC2=O` (stereo partly drawn) [I-2438, Ac-PL3-Hse-Npg-B5-Asp-His-Ala-Ala-Phe-Thr-PyrS2-Phe-BztA-Gln-NH2], 1760 nM; for `CC(=O)N1CCC[C@]12CC=CCCCC1(CCCC=CCCCOC(=O)N3CC[C@@](C(=O)N[C@@H](Cc4ccccc4)C(=O)N[C@@H](Cc4csc5ccccc45)C(=O)N[C@@H](CCC(N)=O)C(N)=O)(C3)NC(=O)[C@H](Cc3c[nH]cn3)NC(=O)[C@H](Cc3ccccc3)NC(=O)[C@H](C)NC(=O)[C@H](C)NC(=O)[C@H](CCC(N)=O)NC(=O)[C@H](CC(=O)O)NC1=O)NC(=O)[C@H](CC(C)(C)C)NC(=O)[C@H](CCO)NC2=O` (stereo partly drawn) [I-2439, Ac-PL3-Hse-Npg-B5-Asp-Gln-Ala-Ala-Phe-His-PyrS2-Phe-BztA-Gln-NH2], 2760 nM.
Take `CC(=O)N1CCC[C@]12CC=CCCCC1(CCCC=CCCCOC(=O)N3CC[C@@](C(=O)N[C@@H](Cc4ccccc4)C(=O)N[C@@H](Cc4csc5ccccc45)C(=O)N[C@@H](CCC(N)=O)C(N)=O)(C3)NC(=O)[C@H](Cc3c[nH]cn3)NC(=O)[C@H](Cc3ccccc3)NC(=O)[C@H](C)NC(=O)[C@H](C)NC(=O)[C@H](CCC(N)=O)NC(=O)[C@H](CC(=O)O)NC1=O)NC(=O)[C@H](CC(C)(C)C)NC(=O)[C@H](CC(N)=O)NC2=O` (stereo partly drawn) [I-2440, Ac-PL3-Asn-Npg-B5-Asp-Gln-Ala-Ala-Phe-His-PyrS2-Phe-BztA-Gln-NH2]: the IC50 was found to be 360 nM.
The value for `CC(=O)N1CCC[C@]12CC=CCCCC1(CCCC=CCCCOC(=O)N3CC[C@@](C(=O)N[C@@H](Cc4ccccc4)C(=O)N[C@@H](Cc4csc5ccccc45)C(=O)N[C@@H](CCC(N)=O)C(N)=O)(C3)NC(=O)[C@H](CC(C)C)NC(=O)[C@H](Cc3ccccc3)NC(=O)[C@H](C)NC(=O)[C@H](C)NC(=O)[C@H](Cc3c[nH]cn3)NC(=O)[C@H](CC(=O)O)NC1=O)NC(=O)[C@H](CC(C)(C)C)NC(=O)[C@H](CC(N)=O)NC2=O` (stereo partly drawn) [I-2442, Ac-PL3-Asn-Npg-B5-Asp-His-Ala-Ala-Phe-Leu-PyrS2-Phe-BztA-Gln-NH2] was 282 nM.
The value for `CC(=O)N1CCC[C@]12CC=CCCCC1(CCCC=CCCCOC(=O)N3CC[C@@](C(=O)N[C@@H](Cc4ccccc4)C(=O)N[C@@H](Cc4csc5ccccc45)C(=O)N[C@@H](CCC(N)=O)C(N)=O)(C3)NC(=O)[C@H](CC(C)C)NC(=O)[C@H](Cc3ccccc3)NC(=O)[C@H](C)NC(=O)[C@H](C)NC(=O)[C@H](CCC(N)=O)NC(=O)[C@H](CC(=O)O)NC1=O)NC(=O)[C@H](CC(C)(C)C)NC(=O)[C@H](CCO)NC2=O` (stereo partly drawn) [I-2443, Ac-PL3-Hse-Npg-B5-Asp-Gln-Ala-Ala-Phe-Leu-PyrS2-Phe-BztA-Gln-NH2] was 6670 nM.
For `CCCc1cn(CCCC[C@@H](NC(=O)[C@H](CO)NC(=O)[C@H](Cc2csc3ccccc23)NC(=O)[C@H](Cc2ccccc2C(F)(F)F)NC(=O)[C@]23CCN(C2)C(=O)OCCCC=CCCCC2(CCCC=CC[C@]4(CCCN4C(C)=O)C(=O)N[C@@H](CC(=O)O)C(=O)N[C@@H](CC(C)(C)C)C(=O)N2)C(=O)N[C@@H](CC(=O)O)C(=O)N[C@@H](Cc2cccc(C(=O)O)c2)C(=O)N[C@@H](C)C(=O)N[C@@H](C)C(=O)N[C@@H](Cc2ccccc2)C(=O)N[C@@H](CC(C)C)C(=O)N3)C(N)=O)nn1` (stereo partly drawn) [I-2444, Ac-PL3-Asp-Npg-B5-Asp-3COOHF-Ala-Ala-Phe-Leu-PyrS2-2F3MeF-BztA-Ser-[3C]TriAzdLys-NH2] the value was 121 nM; for `CC(=O)N1CCC[C@]12CC=CCCCC1(CCCC=CCCCOC(=O)N3CC[C@@](C(=O)N[C@@H](Cc4ccccc4)C(=O)N[C@@H](Cc4csc5ccccc45)C(=O)N[C@@H](CCC(N)=O)C(N)=O)(C3)NC(=O)[C@H](CC(C)C)NC(=O)[C@H](Cc3ccccc3)NC(=O)[C@H](C)NC(=O)[C@H](CCO)NC(=O)[C@H]([C@@H](C)O)NC(=O)[C@H](CC(=O)O)NC1=O)NC(=O)[C@H](CC1CCCCC1)NC(=O)[C@H](CC(N)=O)NC2=O` (stereo partly drawn) [I-2447, Ac-PL3-Asn-Cha-B5-Asp-Thr-Hse-Ala-Phe-Leu-PyrS2-Phe-BztA-Gln-NH2], 3250 nM.
